Laboratory results from patent US20210267979A1, “THERAPEUTIC AGENT FOR TREATING DIFFUSE GASTRIC CANCER” (KANAZAWA MEDICAL UNIVERSITY, priority 2018, published 2021).
Like-named read-outs stand apart in the source and are kept apart here. Blank lines part the entries; values can stand above or below the molecule they belong to.

How the values were obtained:
NUGC4 cells = assay: Survival of Balb/c nu/nu mice intraperitoneally transplanted with diffuse gastric cancer cells; type: in vivo, Balb/c nu/nu mouse; settings: NUGC4 intraperitoneal transplant; oral administration from day 21 for 4 weeks, then 4 weeks observation; control mice all died within 7 weeks
Procedure: To a Balb/c nu/nu mouse (6 weeks old), diffuse gastric cancer cells (NUGC4 cells, 2×10^6 cells in 200 micro L PBS) were transplanted by intraperitoneal administration. On 21 days after transplantation, ascites was observed, and oral administration was started with trametinib (0.1 mg/kg body weight or 0.3 mg/kg body weight), everolimus (1.5 mg/kg body weight), combined use of trametinib (0.1 mg/kg body weight) and everolimus (1 mg/kg body weight), combined use of trametinib (0.1 mg/kg body weight) and everolimus (1 mg/kg body weight), combined use of trametinib (0.3 mg/kg) and everolimus (1 mg/kg), or combined use of trametinib (0.3 mg/kg body weight) and everolimus (5 mg/kg body weight). Each of the trametinib and the everolimus was dissolved in a solution (7% DMSO, 13% Tween80, 80% Otsuka glucose injection (5%), HCl equimolar to each compound). To a control group, only a solution containing no medicinal agent was administered. Administration was continued for 4 weeks, followed by observation for the following 4 weeks without administration of the medicinal agent.

MKN7 = assay: Cell proliferation of non-diffuse gastric cancer cells MKN7 (Cell Counting Kit-8); type: cell-based, Human; settings: for IC50: Homo sapiens, MKN-7, MKN7
Procedure: (§1) Cell proliferation was measured by Cell Counting Kit-8 (CCK-8) (Dojindo Laboratories, Kumamoto, Japan) (M. Ishiyama, et al., Talenta 44; 1299: 1997). Cells were seeded at 100 micro L/well at a concentration of 5×10^4 cells/mL and were cultured in an incubator at 37° C. for 24 hours. To each well, HGF (R&D systems) (50 ng/mL) or amphiregulin (R&D Systems (Minneapolis, Minn.)) (100 ng/mL) and trametinib (Selleck Chemicals (Houston, Tex.)) (0.001 to 10 micro M) were then added, and the cells were further cultured in an incubator at 37° C. for 72 hours. To each well, 10 micro L of a WST-solution was added, which was incubated at 37° C. for 4 hours. Absorbance was measured at a wavelength of 450 nm by a microplate reader (BIO-RAD Laboratories, Inc.). A similar experiment was repeated three times in triplets.
(§2) Effects of trametinib on proliferation of non-diffuse gastric cancer cell were examined by the similar method to that in Example 1.
(§3) Human non-diffuse, well-differentiated gastric cancer cells used were MKN7 (Health Science Research Resources Bank (Osaka, Japan)) and GCR1 (Cancer Research Institute, Kanazawa University).

NUGC4 [1] = assay: Cell proliferation of diffuse gastric cancer cell strain NUGC4 (Cell Counting Kit-8); type: cell-based; settings: for Inhibitory effect on HGF induced, amphiregulin induced and base line cell proliferation: single agent, 0.001 to 10 micro M; for IC50: Homo sapiens, 72 hours
Procedure: (§4) Each diffuse gastric cancer cell strain of NUGC4 (obtained from Health Science Research Resources Bank (Osaka, Japan)) and GCIY (obtained from Riken BioResource Research Center (Tsukuba, Japan)) was cultured and passaged in an RPMI1640 culture medium containing 10% fetal calf serum, 100 units/mL penicillin, and […] streptomycin antibiotic, and was used for the following experiments. Mycoplasma infection of cultured cells was regularly checked by MycoAlert Mycoplasma Detection kit (Lonza).
as §1

GCIY = assay: Cell proliferation of diffuse gastric cancer cell strain GCIY (Cell Counting Kit-8); type: cell-based; settings: for IC50: Homo sapiens
Procedure: as §4, §1

GCR1 = assay: Cell proliferation of non-diffuse gastric cancer cells GCR1 (Cell Counting Kit-8); type: cell-based; settings: Homo sapiens
Procedure: as §1, §2, §3

MKN45 = assay: Cell proliferation of cMet gene-amplified gastric cancer cell strain MKN45 (Cell Counting Kit-8); type: cell-based; settings: Homo sapiens
Procedure: as §1
Effects of trametinib on proliferation of cMet gene-amplified gastric cancer cell were examined by the similar method to that in Example 1.
As the cMet gene-amplified gastric cancer cells, cMet gene-amplified gastric cancer cell strain MKN45 (Health Science Research Resources Bank (Osaka, Japan)) was used.

NUGC4 [2] = assay: Cell proliferation of diffuse gastric cancer cell strain NUGC4 (Cell Counting Kit-8); type: cell-based; settings: for IC50: Homo sapiens
[3] = HGF induced, combined with everolimus 1 micro M, read-out: Trametinib IC50 (micro M) HGF
[4] = amphiregulin induced, combined with everolimus 1 micro M, read-out: Trametinib IC50 (micro M) amphiregulin
[5] = base line, Example 5, combined use with everolimus 1 micro M, read-out: Trametinib IC50 (micro M) Base line
[6] = HGF induced proliferation, read-out: Trametinib IC50 (micro M) HGF
[7] = amphiregulin induced proliferation, read-out: Trametinib IC50 (micro M) amphiregulin
[8] = without HGF or amphiregulin, read-out: Trametinib IC50 (micro M) Base line

Molecule: CO[C@H]1C[C@@H]2CC[C@@H](C)[C@@](O)(O2)C(=O)C(=O)N2CCCC[C@H]2C(=O)O[C@H]([C@H](C)C[C@@H]2CC[C@@H](OCCO)[C@H](OC)C2)CC(=O)[C@H](C)/C=C(\C)[C@@H](O)[C@@H](OC)C(=O)[C@H](C)C[C@H](C)/C=C/C=C/C=C/1C [everolimus]
- Survival time as compared with the control group (NUGC4 cells): prolonged survival times

Molecule: O=C(NC[C@H](O)CO)c1ccncc1Nc1ccc(I)cc1F [pimasertib]
- Proliferation inhibitory effect of combined use of pimasertib and rapamycin (MKN7; MKN7, rapamycin 1 micro M): no combined effect was exhibited

Molecule: AZD5363
- Inhibitory effect on the HGF induced cell proliferation (NUGC4 [1]; HGF induced): no inhibitory effect was exhibited except for a high concentration of 10 micro M
- Inhibitory effect on the amphiregulin induced cell proliferation (NUGC4 [1]; amphiregulin induced): a slight inhibitory effect was exhibited at a high concentration of 1 micro M or more
- Inhibitory effect on HGF induced, amphiregulin induced and base line cell proliferation (NUGC4 [1]): even lower than the inhibitory effect of everolimus
- Inhibitory effect on the base line cell proliferation (NUGC4 [1]; without HGF and AP): No inhibitory effect was exhibited

- IC50 (NUGC4 [1]; NUGC-4, HGF 50 ng/mL induced proliferation, read-out: Trametinib IC50 (micro M) HGF): 100 nM
- IC50 (NUGC4 [1]; NUGC-4, amphiregulin 100 ng/mL induced proliferation, read-out: Trametinib IC50 (micro M) amphiregulin): 300 nM
- IC50 (NUGC4 [1]; NUGC-4, without HGF and AP, read-out: Trametinib IC50 (micro M) Base line): ≤ 1 nM
- IC50 (GCIY; HGF 50 ng/mL induced proliferation, 72 hours, read-out: Trametinib IC50 (micro M) HGF): 100 nM
- IC50 (GCIY; [3]): 100 nM
- IC50 (GCIY; amphiregulin 100 ng/mL induced proliferation, 72 hours, read-out: Trametinib IC50 (micro M) amphiregulin): 10000 nM
- IC50 (GCIY; [4]): 300 nM
- IC50 (GCIY; [5]): 30 nM
- IC50 (GCIY; without HGF and AP, 72 hours, read-out: Trametinib IC50 (micro M) Base line): 100 nM
- IC50 (MKN7; [6]): 100 nM
- IC50 (MKN7; [3]): 100 nM
- IC50 (MKN7; [7]): 300 nM
- IC50 (MKN7; [4]): 100 nM
- IC50 (MKN7; [5]): 30 nM
- IC50 (MKN7; [8]): 100 nM
- IC50 (GCR1; [6]): 100 nM
- IC50 (GCR1; [3]): 100 nM
- IC50 (GCR1; [7]): 300 nM
- IC50 (GCR1; [4]): 100 nM
- IC50 (GCR1; [5]): 30 nM
- IC50 (GCR1; [8]): 100 nM
- IC50 (MKN45; MKN-45, HGF added, read-out: Trametinib IC50 (micro M) HGF): 1 nM
- IC50 (MKN45; MKN-45, amphiregulin added, read-out: Trametinib IC50 (micro M) amphiregulin): 1 nM
- IC50 (MKN45; MKN-45, without HGF and AP, read-out: Trametinib IC50 (micro M) Base line): 1 nM
- IC50 (NUGC4 [2]; NUGC-4, HGF induced, combined with everolimus 1 micro M, read-out: Trametinib IC50 (micro M) HGF): 10 nM
- IC50 (NUGC4 [2]; NUGC-4, amphiregulin induced, combined with everolimus 1 micro M, read-out: Trametinib IC50 (micro M) amphiregulin): 30 to 100 nM
- IC50 (NUGC4 [2]; NUGC-4, base line, Example 5, combined use with everolimus 1 micro M, read-out: Trametinib IC50 (micro M) Base line): ≤ 1 nM
Molecule: CC(=O)Nc1cccc(-n2c(=O)n(C3CC3)c(=O)c3c(Nc4ccc(I)cc4F)n(C)c(=O)c(C)c32)c1 [Trametinib, trametinib]
- Concentration from which proliferation inhibitory effect on the amphiregulin induced proliferation was observed (GCIY; amphiregulin induced): ≥ 0.03 micro M

Molecule: Cc1cc(NC(=O)c2cccc(NC(=O)/C=C/CN(C)C)c2)ccc1Nc1nccc(-c2cccnc2)n1 [JNK-IN-8]
- Inhibitory effect on HGF induced, amphiregulin induced and base line cell proliferation (NUGC4 [1]): did not exhibit obvious inhibitory effects

Molecule: O=C(NOC[C@H](O)CO)c1ccc(F)c(F)c1Nc1ccc(I)cc1F [PD0325901]
- Proliferation inhibitory effect of combined use of PD0325901 and temsirolimus (MKN7; MKN7, temsirolimus 1 micro M): no combined effect was exhibited
- Proliferation inhibitory effect of combined use of PD0325901 and temsirolimus (NUGC4 [2]; temsirolimus 1 micro M): synergistically improved by addition of temsirolimus
